Read-outs that look alike come from different tables or passages of the source.
Tests used:
[1] = tested on: HeLa cells; test: MTT cell viability assay, HeLa; format: cell-based; conditions: 24 h; for inhibition at 100 µM: read-out: %Inhibition at 100 µM, HeLa cell line; for IC50: read-out: IC50 (µM) ± SEM, HeLa Cell Line
Protocol: (§1) The anti-proliferative activity of the studied compounds was determined against breast (MCF-7) and cervical (HeLa) cancer cells by the MTT cell viability assay as described earlier[44],[45]. BHK-21 cells were used as non-cancerous cells to study the effect of these compounds on normal cells. Briefly, 1 × 10^4 cells/well were seeded in 96-well microtiter plate and placed in an incubator (Heracell™ VIOS 160i, Thermo-Fisher Scientific) set for 5% CO2 at 37 °C. The stock solutions of compounds were prepared at 10 mM concentration in DMSO. Initial working solutions were prepared in cell culture medium at 1 mM concentration. […] After 24 h, medium in each well was aspirated and cells were treated for 4 h with serum free medium containing 0.2 mg/mL MTT reagent. The solubilizing reagent (10% acidified sodium dodecyl sulfate in propanol in a 1:1 ratio) was added to solubilize formazan crystals. Plates were kept at 37 °C for 30 min and then placed on a gyratory shaker for few min for complete solubilization of formazan crystals. The optical density was measured at 570 nm by microplate reader and IC50 values were calculated from three independent experiments as previously reported.

[2] = tested on: MCF-7 cells; test: MTT cell viability assay, MCF-7; format: cell-based; conditions: for inhibition at 100 µM: MCF7, 100 µM, read-out: %Inhibition at 100 µM, MCF-7 cell line; for IC50: read-out: IC50 (µM) ± SEM, MCF-7 cell line
Protocol: as §1

[3] = tested on: BHK-21 cells; test: MTT cell viability assay, non-cancerous BHK-21; format: cell-based, Baby Hamster; conditions: 24 h, read-out: IC50 (µM) ± SEM, BHK-21 cell line
Protocol: as §1

[4] = tested on: HeLa cells; test: Alkaline comet assay; format: cell-based; conditions: 5j 6.4 µM 24 h
Protocol: Comet assay is a sensitive method to determine DNA damage which was performed after some modifications in a published protocol. […] The cervical cancer (HeLa) cells were treated with IC50 value of potent compound 5j for 24 h. Cells were harvested, collected and centrifuged to obtain a pellet. Pelleted cells were re-suspended in media. Untreated cells were used as control cells. For the positive control, 2 × 10^4 cells were treated with 20 µM of freshly prepared hydrogen peroxide for 30 min. Slides were prepared by coating with 1% normal melting point agarose (NMPA) on one side and then dried. Samples (2 × 10^4 cells/sample) were re-suspended in 1 mL of PBS. In a tube, 0.4 mL cell suspension was mixed with 1.2 mL of 0.9% low melting point agarose (LMPA) and mixed thoroughly by pipetting. A cell suspension of 65 µL was laid on coated slide and evenly distributed by placing a coverslip over it. Slides were placed at − 20 °C for 10 min. Then the slides were placed at 4 °C in the dark in a lysis buffer of 100 mM EDTA, 10 mM Trizma base, 2.5 M sodium chloride, 10% DMSO and 1% Triton X-100 in distilled water with a pH of 10. After an overnight incubation, slides were washed with chilled distilled water. These slides were then placed in electrophoresis chamber (Wealtec, USA) having chilled (4 °C) alkali unwinding solution (300 mM sodium hydroxide and 1 mM EDTA in distilled water). Electrophoresis was carried out at an adjusted voltage (between 0.7 and 1.0 V/cm) for 35 min in an electrophoresis tank. Slides were then immersed in neutralization solution (0.4 M Trizma base in 800 mL water, pH 7.5) for 10 min in dark. Propidium iodide (20 µL of 0.01 mg/mL) was used as fluorescent dye to stain DNA. Slides were placed in dark at room temperature. After 10 min, images were captured using a fluorescence microscope (Nikon ECLIPSE Ni–U, Japan) at an excitation/emission wavelength of 493/632 nm. Microscopic images were analyzed using ImageJ (ij152-win-java8, National Institutes of Health, Bethesda, USA) and OpenComet (OpenComet_imagej_v1.3.1, USA) where the DNA content in the head and tail of the comets were automatically measured by the software. Results of three independent experiments were expressed as tail length ([…]), %DNA in comet tail and comet tail moment.

Row | IC50 ([1]; Homo sapiens) [µM] | SMILES | inhibition at 100 µM ([1]; Homo sapiens) [%] | inhibition at 100 µM ([2]; Homo sapiens, 24 h) [%] | IC50 ([3]; Mesocricetus auratus) [µM] | also measured
1 | 58.91 ± 0.39 | Nc1nc2ccccc2c2c1c(N)nc1n[nH]cc12 [5a] | 97.9 | 46.4 | 177 ± 6.11 | 
2 |  | Cc1[nH]nc2c1C1(C(=O)Nc3ccc(Cl)cc31)C(C#N)=C(N)N2 (centres unmarked) [4k] | 3.84 | 11.9 |  | 
3 |  | N#CC1=C(N)Nc2n[nH]cc2C12C(=O)Nc1ccc(OC(F)(F)F)cc12 (centres unmarked) [4g] | 38.6 | 15.2 |  | 
4 | 32.1 ± 1.14 | Cc1ccc2nc(N)c3c(N)nc4n[nH]cc4c3c2c1 [5b] | 98.4 | 96.4 | 126 ± 1.63 | IC50 ([2]; Homo sapiens, MCF7, 24 h): 41.4 ± 0.47 µM
5 |  | N.N.[Cl][Pt][Cl] [Cisplatin, reference compound] |  |  |  | %Inhibition at 100 µM, HeLa cell line [1]: 98.63%; IC50 [1]: 11.3 ± 0.78 µM; %Inhibition at 100 µM, MCF-7 cell line ([2]; 100 µM, 24 h): 73.12%; IC50 ([2]; 24 h): 6.22 ± 0.72 µM; IC50 [3]: 24.7 ± 0.37 µM
6 | 38.5 ± 0.63 | Cc1[nH]nc2nc(N)c3c(N)nc4ccc(Br)cc4c3c12 [5l] | 81.6 | 28.2 | 152 ± 2.61 | 
7 | 61.9 ± 1.76 | Cc1ccc2nc(N)c3c(N)nc4n[nH]c(C)c4c3c2c1 [5i] | 63.5 | 58.2 | 134 ± 1.71 | IC50 ([2]; Homo sapiens, MCF7, 24 h): 54.7 ± 0.63 µM
8 |  | N#CC1=C(N)Nc2n[nH]cc2C12C(=O)Nc1ccc([N+](=O)[O-])cc12 (centres unmarked) [4f] | 26.2 | 5.23 |  | 
9 |  | OO [H2O2, Hydrogen Peroxide, reference compound] |  |  |  | %DNA in tail ± SD [4]: 55.11 ± 0.68%; Tail length ± SD ([4]; H2O2 20 µM 30 min (positive control)): 84.14 ± 3.43 µM
10 | 51.6 ± 0.99 | N#CC1=C(N)Nc2n[nH]cc2C12C(=O)Nc1ccc(Cl)cc12 (centres unmarked) [4d] |  | 18.9 | 246 ± 6.71 | %Inhibition at 100 µM, HeLa cell line [1]: 99.45%
11 | 30.2 ± 1.15 | Nc1nc2ccc(Br)cc2c2c1c(N)nc1n[nH]cc12 [5e] | 98.3 | 96.8 | 84.1 ± 3.31 | IC50 ([2]; Homo sapiens, MCF7, 24 h): 18.6 ± 0.29 µM
12 |  | Cc1[nH]nc2c1C1(C(=O)Nc3ccc(F)cc31)C(C#N)=C(N)N2 (centres unmarked) [4j] | 5.68 | 2.22 |  | 
13 |  | Cc1[nH]nc2nc(N)c3c(N)nc4ccc([N+](=O)[O-])cc4c3c12 [5m] | 44.9 | 10.3 |  | 
14 |  | N#CC1=C(N)Nc2n[nH]cc2C12C(=O)Nc1ccc(Br)cc12 (centres unmarked) [4e] | 24.9 | 7.24 |  | 
15 |  | Cc1[nH]nc2c1C1(C(=O)Nc3ccc(Br)cc31)C(C#N)=C(N)N2 (centres unmarked) [4l] | 39.3 | 1.78 |  | 
16 |  | Nc1nc2ccc(OC(F)(F)F)cc2c2c1c(N)nc1n[nH]cc12 [5g] | 61.3 | 31.4 |  | 
17 |  | Cc1ccc2c(c1)C1(C(=O)N2)C(C#N)=C(N)Nc2n[nH]cc21 (centres unmarked) [4b] | 45.9 | 1.86 |  | 
18 |  | Cc1[nH]nc2c1C1(C(=O)Nc3ccc(OC(F)(F)F)cc31)C(C#N)=C(N)N2 (centres unmarked) [4n] | 27.8 | 0.15 |  | 
19 |  | Cc1[nH]nc2c1C1(C(=O)Nc3ccc([N+](=O)[O-])cc31)C(C#N)=C(N)N2 (centres unmarked) [4m] | 22.7 | 23.3 |  | 
20 | 10.3 ± 0.51 | Nc1nc2ccc(F)cc2c2c1c(N)nc1n[nH]cc12 [5c] | 69.2 | 4.12 | 42.4 ± 1.95 | 
21 | 32.7 ± 2.16 | Cc1[nH]nc2nc(N)c3c(N)nc4ccc(OC(F)(F)F)cc4c3c12 [5n] | 63.2 | 10.5 | 46.6 ± 1.03 | 
22 |  | N#CC1=C(N)Nc2n[nH]cc2C12C(=O)Nc1ccccc12 (centres unmarked) [4a] | 34.5 | 28.2 |  | 
23 |  | Cc1ccc2c(c1)C1(C(=O)N2)C(C#N)=C(N)Nc2n[nH]c(C)c21 (centres unmarked) [4i] | 39.7 | 1.42 |  | 
24 | 90.2 ± 2.18 | N#CC1=C(N)Nc2n[nH]cc2C12C(=O)Nc1ccc(F)cc12 (centres unmarked) [4c] | > 50 | 26.8 | 49.2 ± 2.01 | %Inhibition at 100 µM, HeLa cell line [1]: 57.80%
25 |  | Cc1[nH]nc2c1C1(C(=O)Nc3ccccc31)C(C#N)=C(N)N2 (centres unmarked) [4h] | 5.08 | 2.38 |  | 
26 | 69.1 ± 0.99 | Nc1nc2ccc([N+](=O)[O-])cc2c2c1c(N)nc1n[nH]cc12 [5f] |  | 9.54 | 101 ± 2.61 | 
27 | 40.7 ± 1.42 | Nc1nc2ccc(Cl)cc2c2c1c(N)nc1n[nH]cc12 [5d] | 71.4 | 27.3 | 166.8 ± 0.95 | 
28 | 14.4 ± 1.21 | Cc1[nH]nc2nc(N)c3c(N)nc4ccccc4c3c12 [5h] | 93.6 | 37.8 | 31.4 ± 1.33 | 
